Measured values: US4843087A (priority 1986, dated 1989)
In brackets after ≈: the same amount, converted by molar mass.

Key:
Polio 2 = assay: microbe, parasite or virus in culture; type: cell-based, poliovirus; conditions: Enterovirus C, HeLa, read-out: Polio 2 MIC
[1] = test system: human rhinovirus (HRV) serotypes; assay: microbe, parasite or virus in culture; type: cell-based; conditions: for MIC50: read-out: Rhinovirus MIC50; for IC (MIC80 of serotype panel): read-out: Rhinovirus MIC80

`Cc1cc(CCCCCOc2ccc(C3=NCCO3)cc2C=CBr)on1` [Example 147, 5-{5-[2-(2-Bromoethenyl)-4-(4,5-dihydro-2-oxazolyl)phenoxy]pentyl}-3-methylisoxazole] showed an MIC (Polio 2) of 0.4 µg/mL (≈ 0.954 µM), an MIC50 [1] of 0.23 µg/mL (≈ 0.549 µM) and an IC (MIC80 of serotype panel) [1] of 0.76 µg/mL.
For `Cc1cc(CCCCCCCOc2ccc(C3=NCCO3)c(C)c2)on1` [38(b), 5-{7-[4-(4,5-Dihydro-2-oxazolyl)-3-methylphenoxy]heptyl}-3-methylisoxazole], the MIC (Polio 2) was 0.3 µg/mL (≈ 0.842 µM), the MIC50 [1] was 0.69 µg/mL (≈ 1.94 µM) and the IC (MIC80 of serotype panel) [1] was 0.9 µg/mL.
Work on `OCc1cc(CCCCCOc2c(Cl)cc(C3=NCCO3)cc2Cl)on1` [Example 116, 5-{5-[2,6-Dichloro-4-(4,5-dihydro-2-oxazolyl)phenoxy]pentyl}-3-isoxazolemethanol] yielded an MIC (Polio 2) of 3.1 µg/mL (≈ 7.76 µM), an MIC50 [1] of 0.13 µg/mL (≈ 0.326 µM) and an IC (MIC80 of serotype panel) [1] of 0.5 µg/mL.
For `Cc1cc(CCCCCOc2ccc(C3=NCCO3)cc2Br)on1` [Example 44, 5-{5-[2-Bromo-4-(4,5-dihydro-2-oxazolyl)phenoxy]pentyl}-3-methylisoxazole], the MIC (Polio 2) was 0.3 µg/mL (≈ 0.763 µM), the MIC50 [1] was 0.08 µg/mL (≈ 0.203 µM) and the IC (MIC80 of serotype panel) [1] was 0.54 µg/mL.
Work on `Cc1cc(CCCCCOc2cccc(C3=NCCO3)c2)on1` [Example 30, 5-{5-[3-(4,5-Dihydro-2-oxazolyl)phenoxy]pentyl}-3-methylisoxazole] yielded an MIC (Polio 2) greater than 0.2 µg/mL.
With `Cc1cc(CCC2CCC(COc3ccc(C4=NCCO4)cc3)CC2)on1` (centres unmarked) [101 (b), 5-{2-[4-[[4-(4,5-Dihydro-2-oxazolyl)phenoxy]methyl]cyclohexyl]ethyl}-3-methylisoxazole] the MIC (Polio 2) was 0.65 µg/mL (≈ 1.76 µM).
Work on `Cc1cc(C(O)CCCCCCOc2ccc(C3=NCCO3)cc2)on1` (stereo not drawn) [Example 12, α-{6-[4-(4,5-dihydro-2-oxazolyl)phenoxy]hexyl}-3-methyl-5-isoxazolemethanol] yielded an MIC (Polio 2) of 0.08 µg/mL (≈ 0.223 µM).
With `Cc1cc(CCCCCCCOc2ccc(-c3ncco3)cc2)on1` [87(b), 3-Methyl-5-{7-[4-(2-oxazolyl)phenoxy]heptyl}isoxazole] the MIC (Polio 2) was 0.04 µg/mL (≈ 0.118 µM).
Molecule `Cc1cc(CCCCOc2ccc(C3=NCCO3)cc2)on1` [21 (b), 5-{4-[4-(4,5-Dihydro-2-oxazolyl)phenoxy]butyl}-3-methylisoxazole] has an MIC (Polio 2) of 0.5 µg/mL (≈ 1.66 µM).
`CC(=O)OCc1cc(CCCCCCCOc2ccc(C3=NCCO3)cc2)on1` [Example 28, 5-{7-[4-(4,5-Dihydro-2-oxazolyl)phenoxy]heptyl}-3-isoxazolemethanol acetate] was tested, and the MIC (Polio 2) was 0.007 µg/mL.
`Cc1cc(CCCCCCCOc2ccc(C3=NC[C@@H](C)O3)cc2)on1` [Example 123, (R)-5-{7-[4-(4,5-Dihydro-5-methyl-2-oxazolyl)phenoxy]heptyl}-3-methylisoxazole] showed an MIC (Polio 2) of 1.01 µg/mL (≈ 2.83 µM).
With `Cc1cc(CCCCCOc2ccc(C3=NCCO3)cc2Cl)no1` [Example 37, 3-{5-[2-Chloro-4-(4,5-dihydro-2-oxazolyl)phenoxy]pentyl}-5-methylisoxazole] the MIC (Polio 2) was 0.4 µg/mL (≈ 1.15 µM).
`Cc1cc(CCCOCOCCOc2ccc(C3=NCCO3)cc2)on1` [Example 73, 5-{3-[[2-[4-(4,5-Dihydro-2-oxazolyl)phenoxy]ethoxy]methoxy]propyl}-3-methylisoxazole] showed an MIC (Polio 2) of 0.46 µg/mL (≈ 1.28 µM).
For `Cc1cc(CCCCCCCOc2ccc(C3=NCCO3)cc2C=O)on1` [Example 69, 5-{7-[4-(4,5-Dihydro-2-oxazolyl)-2-formylphenoxy]heptyl}-3-methylisoxazole], the MIC (Polio 2) was 0.44 µg/mL (≈ 1.19 µM).
In the case of `Cc1cc(CCCCOc2ccc(C3=NC(C)CO3)cc2Cl)on1` (centres unmarked) [Example 65, 5-{4-[2-Chloro-4-(4,5-dihydro-4-methyl-2-oxazolyl)phenoxy]butyl}-3-methylisoxazole], the MIC50 [1] is reported as 0.26 µg/mL (≈ 0.745 µM) and the IC (MIC80 of serotype panel) [1] is reported as 0.45 µg/mL.
For `Cc1cc(CCCCCCCCOc2ccc(C3=NCCO3)cc2Cl)on1` [Example 22, 5-{8-[2-Chloro-4-(4,5-dihydro-2-oxazolyl)phenoxy]octyl}-3-methylisoxazole], the MIC (Polio 2) was 1.1 µg/mL (≈ 2.81 µM).
Work on `OCc1cc(CCCCCCCOc2ccc(C3=NCCO3)cc2)on1` [Example 11, 5-{7-[4-(4,5-Dihydro-2-oxazolyl)phenoxy]heptyl}-3-isoxazolemethanol] yielded an MIC (Polio 2) of 0.02 µg/mL (≈ 0.0558 µM).
